One assay addresses T1, α1b-AR (Homo sapiens, UniProt P35368).
T1 sequence (P35368 1-520): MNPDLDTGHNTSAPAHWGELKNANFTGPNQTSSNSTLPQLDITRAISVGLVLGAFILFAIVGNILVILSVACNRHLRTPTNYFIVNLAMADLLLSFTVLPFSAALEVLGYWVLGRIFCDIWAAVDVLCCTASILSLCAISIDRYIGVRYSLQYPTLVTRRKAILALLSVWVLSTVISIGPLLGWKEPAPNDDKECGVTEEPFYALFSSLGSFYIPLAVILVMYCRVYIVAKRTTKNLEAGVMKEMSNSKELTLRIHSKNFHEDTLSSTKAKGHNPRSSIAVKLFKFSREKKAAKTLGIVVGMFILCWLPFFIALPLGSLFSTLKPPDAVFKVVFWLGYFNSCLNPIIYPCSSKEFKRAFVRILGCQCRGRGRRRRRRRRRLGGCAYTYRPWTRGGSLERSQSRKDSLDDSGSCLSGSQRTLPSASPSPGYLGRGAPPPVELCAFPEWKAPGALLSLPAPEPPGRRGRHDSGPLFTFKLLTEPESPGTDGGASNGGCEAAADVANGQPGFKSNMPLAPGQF
Briefly: α1-Adrenergic receptor radio-ligand (125I-HEAT) binding assay, α1b subtype. Particulars: for Ki: Receptor Binding, Ki α1b-AR, COS-7 cell membranes, 125I-HEAT.

The target of the next assay is T2, α1d-AR (Homo sapiens, UniProt P25100).
T2 construct: expressed in transfected cells; host or cells: COS-7
T2 sequence (P25100 1-572): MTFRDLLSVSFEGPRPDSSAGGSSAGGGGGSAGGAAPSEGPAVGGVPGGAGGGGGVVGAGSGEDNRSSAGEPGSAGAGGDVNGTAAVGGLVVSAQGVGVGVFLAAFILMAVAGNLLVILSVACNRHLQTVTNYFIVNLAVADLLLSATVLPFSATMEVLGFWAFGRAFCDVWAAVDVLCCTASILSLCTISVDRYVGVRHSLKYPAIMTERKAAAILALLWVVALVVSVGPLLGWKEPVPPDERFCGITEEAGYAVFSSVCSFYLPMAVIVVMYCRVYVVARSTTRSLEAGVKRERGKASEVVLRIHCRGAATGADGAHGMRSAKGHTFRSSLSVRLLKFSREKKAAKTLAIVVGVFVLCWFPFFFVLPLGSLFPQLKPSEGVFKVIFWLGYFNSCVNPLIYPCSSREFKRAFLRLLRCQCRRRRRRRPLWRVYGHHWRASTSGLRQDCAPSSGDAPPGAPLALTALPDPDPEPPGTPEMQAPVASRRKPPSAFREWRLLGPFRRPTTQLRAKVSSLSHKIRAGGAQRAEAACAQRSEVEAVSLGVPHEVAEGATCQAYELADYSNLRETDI
Briefly: α1-Adrenergic receptor radio-ligand (125I-HEAT) binding assay, α1d subtype. To be noted: for Ki: COS-7 cell membranes, 125I-HEAT, read-out: Receptor Binding, Ki α1d-AR. On the procedure: (§1) α1-Adrenergic Receptor Binding Assay: Preparation of COS Cell Membranes
(§2) Membranes were prepared from COS-7 cells that had been transfected with one of the three α1-AR subtypes by the following method. COS cells from ten 100 mm tissue culture plates were scraped into 5 mL TE (50 mM Tris-HCl, 5 mM EDTA, pH 7.4). The cell suspension was disrupted with a Brinkman Polytron, setting 8, for 10 sec. The disrupted cells were centrifuged at 1000×g for 10 min at 4° C. Supernatants were centrifuged at 34,500×g for 20 min at 4° C. The membrane pellets were suspended in 2 mL TNE (50 mM Tris-HCl, 5 mM EDTA, 150 mM NaCl, pH7.4). An aliquot of the membrane suspension was stored at −70° C. until use. The protein concentration was determined using the BioRad DC protein assay kit following membrane solubilization with Triton X-100.
(§3) Radio-Ligand Binding Assay
Triplicate determinations of radio-ligand binding in the presence of increasing: concentrations of testing compound were made. The reagents were added to 96-well polypropylene plate wells using the Biomek 1000 robot (Beckman Instruments). […] The plate was incubated at rt for 1 hr. The contents of the wells were filtered through a GF/C membrane Unifilter plate (Packard Instruments) using the Packard Filtermate cell harvester. The filter plates were dried in a vacuum oven for 30 min at 40° C. 25 μL Microscint 20 liquid scintillation fluid (Packard Instuments) was added to each well. The radioactive content was analyzed in the TopCount microplate scintillation counter (Packard Instruments).

Another assay has as its target T3, α1a-AR (Homo sapiens, UniProt P35348).
T3 construct: expressed in transfected cells; host or cells: COS-7
T3 sequence (P35348 1-466): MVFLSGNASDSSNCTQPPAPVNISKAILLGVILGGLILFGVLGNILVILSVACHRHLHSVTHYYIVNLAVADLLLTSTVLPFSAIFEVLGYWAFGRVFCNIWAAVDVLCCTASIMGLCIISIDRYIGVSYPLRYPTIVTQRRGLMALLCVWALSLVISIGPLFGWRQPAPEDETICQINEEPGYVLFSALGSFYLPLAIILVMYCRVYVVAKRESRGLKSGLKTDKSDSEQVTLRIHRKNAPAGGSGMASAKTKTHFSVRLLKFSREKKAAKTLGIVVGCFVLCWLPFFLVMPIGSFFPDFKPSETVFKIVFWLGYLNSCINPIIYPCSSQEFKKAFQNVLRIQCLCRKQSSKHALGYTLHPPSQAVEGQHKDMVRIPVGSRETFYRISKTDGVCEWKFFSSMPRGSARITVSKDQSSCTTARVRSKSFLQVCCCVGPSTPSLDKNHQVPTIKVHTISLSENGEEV
The experiment in a line: α1-Adrenergic receptor radio-ligand (125I-HEAT) binding assay, α1a subtype. To be noted: for Ki: COS-7 cell membranes, 125I-HEAT. As for the experimental part: as §1, §2, §3
Triplicate determinations of radio-ligand binding in the presence of increasing: concentrations of testing compound were made. The reagents were added to 96-well polypropylene plate wells using the Biomek 1000 robot (Beckman Instruments). Each assay well contained 140 μl TNE, 25 μL ^125I-HEAT (specific activity 2200 Ci/mmol, Dupont-NEN, 50 pM final), 10 μL testing compound dissolved in DMSO (1 pM to 10 μM in half-log increments, final), and 25 μL appropriate α1-AR membrane subtype suspension in TNE (0.5 ng/μL for the α1a and α1b subtypes and 13 ng/μL for the α1d subtype). The plate was incubated at rt for 1 hr. The contents of the wells were filtered through a GF/C membrane Unifilter plate (Packard Instruments) using the Packard Filtermate cell harvester. The filter plates were dried in a vacuum oven for 30 min at 40° C. 25 μL Microscint 20 liquid scintillation fluid (Packard Instuments) was added to each well. The radioactive content was analyzed in the TopCount microplate scintillation counter (Packard Instruments).

For 15 molecules, Kd and Ki results are on record in patent publication US20060173015A1, “Cyclohexyldiamines as selective alpha 1a/1d adrenoreceptor antagonists for the treatment of benign prostatic hypertrophy and lower urinary tract symptoms” (priority 2004, published 2006).

By Kd is commonly meant the constant that tells how readily two partners part at equilibrium. Regarding `O=C1c2ccccc2CCC1CNCCc1ccc(O)c(I)c1` (stereo not shown) [125I-HEAT, reference compound], the Kd was 79 nM at α1b-AR (read-out: Kd used in the Ki calculation, α1b-AR, radio-ligand); 50 nM on α1d-AR (radio-ligand, read-out: Kd used in the Ki calculation, α1d-AR); 81.5 nM on α1a-AR (radio-ligand, read-out: Kd used in the Ki calculation, α1a-AR).

As a reminder, the Ki is a measure of affinity in units of concentration, obtained from inhibition or displacement. Consider `CC(C)Oc1ccccc1N1CCN([C@H]2CC[C@@H](NS(=O)(=O)c3ccc(Cl)cc3Cl)CC2)CC1` [Cpd 1, 2,4-Dichloro-N-cis-{4-[4-(2-isopropoxy-phenyl)-piperazine-1-yl]-cyclohexyl}-benzenesulfonamide], for which the Ki at α1b-AR came out at 177 nM; at α1d-AR, 0.64 nM; at α1a-AR, 4.5 nM.

Take `COc1ccc(Cl)cc1S(=O)(=O)N[C@H]1CC[C@@H](N2CCN(c3ccccc3OC(C)C)CC2)CC1` [Cpd 3, 5-Chloro-N-cis-{4-[4-(2-isopropoxy-phenyl)-piperazin-1-yl]-cyclohexyl}-2-methoxy-benzenesulfonamide]: the inhibitory constant (Ki) was determined as 47.6 nM on α1b-AR and 2.5 nM at α1a-AR.

With `COc1ccc(C)cc1S(=O)(=O)N[C@H]1CC[C@@H](N2CCN(c3ccccc3OC(C)C)CC2)CC1` [Cpd 4, N-cis-{4-[4-(2-Isopropoxy-phenyl)-piperazin-1-yl]-cyclohexyl}-2-methoxy-5-methyl-benzenesulfonamide], the figures for the inhibition constant (Ki) at α1b-AR, on α1d-AR and at α1a-AR were 141 nM, 3.8 nM and 4.6 nM, respectively.

Consider `CC(C)Oc1ccccc1N1CCN([C@H]2CC[C@@H](NS(=O)(=O)c3ccccc3S(C)(=O)=O)CC2)CC1` [Cpd 5, N-cis-{4-[4-(2-Isopropoxy-phenyl)-piperazin-1-yl]-cyclohexyl}-2-methanesulfonyl-benzenesulfonamide], for which the figures for the Ki on α1b-AR, on α1d-AR and at α1a-AR were 118 nM, 2.8 nM and 12.5 nM, respectively.

`CC(C)Oc1ccccc1N1CCN([C@H]2CC[C@@H](NS(=O)(=O)c3ccc(C(F)(F)F)cc3)CC2)CC1` [Cpd 9, N-cis-{4-[4-(2-Isopropoxy-phenyl)-piperazin-1-yl]-cyclohexyl}-4-trifluoromethyl-benzenesulfonamide]: the Ki on α1b-AR came out at 124 nM; at α1d-AR, 18 nM; on α1a-AR, 25 nM.

In the case of `CC(C)Oc1ccccc1N1CCN([C@H]2CC[C@@H](NS(=O)(=O)c3ccc(F)cc3)CC2)CC1` [Cpd 10, 4-Fluoro-N-cis-{4-[4-(2-isopropoxy-phenyl)-piperazin-1-yl]-cyclohexyl}-benzenesulfonamide], the inhibitory constant (Ki) on α1b-AR is 150 nM; on α1d-AR it was 4.8 nM; on α1a-AR it was 5.6 nM.

Take `Cc1c(Cl)cccc1S(=O)(=O)N[C@H]1CC[C@@H](N2CCN(c3ccccc3OC(C)C)CC2)CC1` [Cpd 11, 3-Chloro-N-cis-{4-[4-(2-isopropoxy-phenyl)-piperazin-1-yl]-cyclohexyl}-2-methyl-benzenesulfonamide]: the Ki at α1b-AR was 129 nM; on α1d-AR, 1.1 nM; at α1a-AR it was 18 nM.

Take `CC(C)Oc1ccccc1N1CCN([C@H]2CC[C@@H](NS(=O)(=O)c3cc(Cl)ccc3F)CC2)CC1` [Cpd 12, 5-Chloro-2-fluoro-N-cis-{4-[4-(2-isopropoxy-phenyl)-piperazin-1-yl]-cyclohexyl}-benzenesulfonamide]: the inhibitory constant (Ki) at α1b-AR came to 66 nM; at α1d-AR, 0.4 nM; at α1a-AR it was 3.8 nM.

For `CC(C)Oc1ccccc1N1CCN([C@H]2CC[C@@H](NS(=O)(=O)c3ccccc3C(F)(F)F)CC2)CC1` [Cpd 13, N-cis-{4-[4-(2-Isopropoxy-phenyl)-piperazin-1-yl]-cyclohexyl}-2-trifluoromethyl-benzenesulfonamide], the Ki at α1b-AR is 190 nM; on α1d-AR, 3.4 nM; at α1a-AR it was 23 nM.

As for `CC(C)Oc1ccccc1N1CCN([C@H]2CC[C@@H](NS(=O)(=O)c3ccc(F)c(Cl)c3)CC2)CC1` [Cpd 14, 3-Chloro-4-fluoro-N-cis-{4-[4-(2-isopropoxy-phenyl)-piperazin-1-yl]-cyclohexyl}-benzenesulfonamide], the Ki at α1b-AR turned out to be 246 nM; on α1d-AR, 4.3 nM; on α1a-AR, 11.6 nM.

As for `COc1ccc(F)cc1S(=O)(=O)N[C@H]1CC[C@@H](N2CCN(c3ccccc3OC(C)C)CC2)CC1` [Cpd 15, 5-Fluoro-N-cis-{4-[4-(2-isopropoxy-phenyl)-piperazin-1-yl]-cyclohexyl}-2-methoxy-benzenesulfonamide], the inhibition constant (Ki) on α1b-AR was found to be 162 nM; on α1d-AR it was 5 nM; at α1a-AR it was 6 nM.

As for `CC(C)Oc1ccccc1N1CCN([C@H]2CC[C@@H](NS(=O)(=O)c3ccc(OC(F)(F)F)cc3)CC2)CC1` [Cpd 17, N-cis-{4-[4-(2-Isopropoxy-phenyl)-piperazin-1-yl]-cyclohexyl}-4-trifluoromethoxy-benzenesulfonamide], the Ki on α1b-AR is 174 nM; at α1d-AR, 2.1 nM; at α1a-AR, 17.4 nM.

Consider `Cc1ccc(S(=O)(=O)N[C@H]2CC[C@@H](N3CCN(c4ccccc4OC(C)C)CC3)CC2)cc1Cl` [Cpd 18, 3-Chloro-N-cis-{4-[4-(2-isopropoxy-phenyl)-piperazin-1-yl]-cyclohexyl}-4-methyl-benzenesulfonamide], for which the Ki was determined as 167 nM on α1b-AR, 11.1 nM at α1d-AR and 10.5 nM at α1a-AR.

On to `COc1ccc(Cl)cc1S(=O)(=O)N[C@H]1CC[C@H](N2CCN(c3ccccc3OC(C)C)CC2)CC1` [Cpd 31, 5-Chloro-N-trans-{4-[4-(2-isopropoxy-phenyl)-piperazin-1-yl]-cyclohexyl}-2-methoxy-benzenesulfonamide], for which the Ki on α1b-AR is 250 nM; on α1a-AR it was 3.8 nM.
